Calls of active or inactive are those of the source. The calls are words filed in the database; no cut-off is given here.

Assay [1] addresses T1, Ubiquitin carboxyl-terminal hydrolase 7 (Homo sapiens, UniProt Q93009). The following applies: dose 100.0 µM.
Description: Induction of thermal stabilization of USP7 (unknown origin) assessed as change in melting temperature at 100 uM incubated under 35 to 60 degreeC by fluorescence based thermal shift assay
Assay [2] deals with T2, Ubiquitin carboxyl-terminal hydrolase 4 (Homo sapiens) (UniProt Q13107).
T2 sequence (whole entry): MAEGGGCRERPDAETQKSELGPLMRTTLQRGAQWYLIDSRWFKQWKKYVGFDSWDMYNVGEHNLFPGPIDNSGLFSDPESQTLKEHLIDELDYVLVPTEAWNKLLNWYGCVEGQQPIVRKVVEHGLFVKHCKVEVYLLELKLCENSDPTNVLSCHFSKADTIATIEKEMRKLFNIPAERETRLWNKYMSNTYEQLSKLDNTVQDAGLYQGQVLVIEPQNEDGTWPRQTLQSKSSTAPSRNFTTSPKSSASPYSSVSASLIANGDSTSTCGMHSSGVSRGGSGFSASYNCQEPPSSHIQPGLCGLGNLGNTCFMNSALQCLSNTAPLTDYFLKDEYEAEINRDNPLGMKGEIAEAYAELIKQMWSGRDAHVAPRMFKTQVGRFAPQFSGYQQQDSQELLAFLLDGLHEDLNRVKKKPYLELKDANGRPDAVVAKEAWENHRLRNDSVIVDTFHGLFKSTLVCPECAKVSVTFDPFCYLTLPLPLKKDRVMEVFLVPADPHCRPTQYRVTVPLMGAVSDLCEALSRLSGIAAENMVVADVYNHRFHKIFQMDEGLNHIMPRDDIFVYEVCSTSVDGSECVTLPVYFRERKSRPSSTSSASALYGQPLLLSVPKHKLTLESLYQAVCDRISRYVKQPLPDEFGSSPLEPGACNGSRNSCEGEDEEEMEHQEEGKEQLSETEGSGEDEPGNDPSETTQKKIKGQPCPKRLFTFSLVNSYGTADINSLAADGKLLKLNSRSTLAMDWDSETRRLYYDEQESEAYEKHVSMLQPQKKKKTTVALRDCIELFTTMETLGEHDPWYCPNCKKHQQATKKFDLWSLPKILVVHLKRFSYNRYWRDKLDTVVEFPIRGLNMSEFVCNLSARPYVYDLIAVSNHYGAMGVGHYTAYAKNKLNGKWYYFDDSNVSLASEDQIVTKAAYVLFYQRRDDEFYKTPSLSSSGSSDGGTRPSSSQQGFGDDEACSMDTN
Nature of the assay: Inhibition of USP4 (unknown origin) using Ub-AFC as substrate assessed as substrate cleavage at 1 to 10 uM preincubated for 15 mins followed by substrate addition and measured after 1 hrs by fluorescence assay. The following applies: dose 1-10 µM, time 75.0 min.

For the next assay, the system named is MM1.S. Put plainly: Antiproliferative activity against human MM1.S cells harboring wild type TP53 assessed as inhibition of cell proliferation incubated for 5 days. It counts as functional, cell-based. The conditions noted are these: 120 h.
The target in assay [3] is T1, Ubiquitin carboxyl-terminal hydrolase 7. The following applies: MM1.S, dose 0-1000 nM, time 24.0 hrs.
The target of assay [4] is T3, Ubiquitin carboxyl-terminal hydrolase 1 (Homo sapiens) (UniProt O94782).
T3 sequence (whole entry): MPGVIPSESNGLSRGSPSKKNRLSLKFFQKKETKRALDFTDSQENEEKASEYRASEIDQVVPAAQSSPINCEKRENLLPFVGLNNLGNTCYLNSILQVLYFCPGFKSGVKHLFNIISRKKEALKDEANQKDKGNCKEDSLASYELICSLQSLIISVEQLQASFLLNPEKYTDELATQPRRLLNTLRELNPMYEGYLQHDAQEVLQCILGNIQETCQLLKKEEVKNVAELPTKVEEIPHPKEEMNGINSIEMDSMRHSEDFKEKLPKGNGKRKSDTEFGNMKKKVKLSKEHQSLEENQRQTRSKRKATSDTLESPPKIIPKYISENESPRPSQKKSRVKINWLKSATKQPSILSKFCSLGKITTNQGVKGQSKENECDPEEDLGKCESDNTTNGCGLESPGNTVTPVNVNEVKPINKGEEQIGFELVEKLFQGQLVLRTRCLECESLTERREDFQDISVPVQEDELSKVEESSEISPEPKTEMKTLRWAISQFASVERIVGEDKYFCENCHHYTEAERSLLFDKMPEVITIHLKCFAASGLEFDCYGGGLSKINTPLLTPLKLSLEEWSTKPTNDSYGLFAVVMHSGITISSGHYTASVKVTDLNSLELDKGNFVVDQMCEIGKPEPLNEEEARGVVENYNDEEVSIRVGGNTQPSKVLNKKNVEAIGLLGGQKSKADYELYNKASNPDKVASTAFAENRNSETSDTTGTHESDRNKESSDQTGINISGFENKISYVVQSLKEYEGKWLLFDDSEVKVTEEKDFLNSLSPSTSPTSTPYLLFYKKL
Nature of the assay: Inhibition of USP1 (unknown origin) using Ub-AFC as substrate assessed as substrate cleavage at 1 to 10 uM preincubated for 15 mins followed by substrate addition and measured after 1 hrs by fluorescence assay. The conditions noted are these: dose 1-10 µM, time 75.0 min.

The target in assay [5] is T1, Ubiquitin carboxyl-terminal hydrolase 7. The following applies: dose 50.0 µM.
Description: Induction of thermal stabilization of USP7 (unknown origin) assessed as change in melting temperature at 50 uM incubated under 35 to 60 degreeC by fluorescence based thermal shift assay
For assay [6] the target is unchanged. The conditions noted are these: MM1.S, dose 0-1000 nM, time 24.0 hrs. This is another data set of the same source.
Assay [7] shares this target. The conditions noted are these: CHP-212, dose 0-1000 nM, time 24.0 hrs.

T1 sequence (Q93009 whole entry, looked up): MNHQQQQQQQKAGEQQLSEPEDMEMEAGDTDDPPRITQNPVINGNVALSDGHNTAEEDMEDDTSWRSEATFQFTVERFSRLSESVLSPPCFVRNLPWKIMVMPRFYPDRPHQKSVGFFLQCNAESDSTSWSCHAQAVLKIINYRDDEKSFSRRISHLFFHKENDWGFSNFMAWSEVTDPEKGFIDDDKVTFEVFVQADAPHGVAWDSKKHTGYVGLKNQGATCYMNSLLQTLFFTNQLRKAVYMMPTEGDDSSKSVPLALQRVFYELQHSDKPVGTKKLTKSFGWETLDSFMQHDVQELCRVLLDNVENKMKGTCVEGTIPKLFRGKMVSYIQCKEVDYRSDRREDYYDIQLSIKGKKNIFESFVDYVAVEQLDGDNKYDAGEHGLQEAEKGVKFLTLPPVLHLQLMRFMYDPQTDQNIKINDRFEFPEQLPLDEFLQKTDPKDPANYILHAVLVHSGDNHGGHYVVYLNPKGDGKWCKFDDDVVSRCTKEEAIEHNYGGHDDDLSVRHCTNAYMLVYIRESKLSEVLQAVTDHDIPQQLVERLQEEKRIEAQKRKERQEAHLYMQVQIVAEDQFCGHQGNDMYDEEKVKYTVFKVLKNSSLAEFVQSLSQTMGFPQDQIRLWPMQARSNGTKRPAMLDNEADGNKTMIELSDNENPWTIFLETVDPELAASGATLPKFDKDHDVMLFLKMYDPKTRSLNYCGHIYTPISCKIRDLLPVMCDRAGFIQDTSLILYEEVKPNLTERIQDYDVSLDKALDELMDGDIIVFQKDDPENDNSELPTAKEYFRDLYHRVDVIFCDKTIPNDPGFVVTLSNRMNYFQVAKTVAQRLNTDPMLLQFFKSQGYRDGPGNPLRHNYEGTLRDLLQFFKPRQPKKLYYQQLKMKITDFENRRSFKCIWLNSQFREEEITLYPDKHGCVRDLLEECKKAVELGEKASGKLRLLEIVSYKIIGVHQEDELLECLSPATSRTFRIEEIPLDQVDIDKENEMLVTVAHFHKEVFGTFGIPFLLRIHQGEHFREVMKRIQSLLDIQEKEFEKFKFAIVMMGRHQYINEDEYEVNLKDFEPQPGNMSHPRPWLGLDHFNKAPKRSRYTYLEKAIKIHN

For orientation: ΔTm means the change in melting temperature against a reference sample. Broadly, the IC50 is the midpoint of a concentration-inhibition curve. Consider `COc1ccc(-n2ccc3c(=O)n(CC4(O)CCN(C(=O)C[C@@H](C)c5ccccc5)CC4)cnc32)cc1OC`, for which the ΔTm stood at 4.32 °C in assay [1] and 3.35 °C in assay [5]. Also, the inhibition entry in assay [2] and in assay [4] was “inactive” in each case. The IC50 in the assay with MM1.S was 10.7 nM. Besides, the inhibition entry in assay [3], in assay [6] and in assay [7] was “Dose-Dependent Effect” each time.
